One data set concerns EGFR (T790M). Also noted: method as in data not published. The conditions noted are these: ref data not published; cited from earlier work.
Data set [1] has as its system EGFR with a deletion in the exon 19. On the set-up: method as in data not published. The conditions noted are these: ref data not published; cited from earlier work.
Another data set concerns HER4. Also noted: method as in data not published. Conditions: ref data not published; cited from earlier work.
The target of data set [2] is B-lymphoid tyrosine kinase (BLK). Also noted: method as in data not published. Conditions: ref data not published; cited from earlier work.
For data set [3], the target named is receptor-interacting serine/threonine-protein kinase 2 (RIPK2). On the set-up: method as in data not published. The conditions noted are these: ref data not published; cited from earlier work.
Data set [4] in a line: urine and fecal excretion recovery, cycle 0. It is filed as in vivo. Conditions: human, oral. As to the method: Blood samples (4 ml) for pharmacokinetic analyses were collected in tubes containing K2EDTA anticoagulant. Blood samples were centrifuged at 3,000 rpm for 10 min at 4°C and stored at –80°C until liquid chromatography-mass spectrophotometry (LC-MS/MS) analysis. Urine and fecal samples were collected only when patients were given the150-mg and 220-mg dose levels at sampling time intervals of 0–4, 4–8, 8–12, 12–24, 24–48, 48–72, 72–96 and 96–120 h in cycle 0.
Linear mixed effects model was used to explore the dose exposure relationships. Dose proportionality was concluded if the 95% confidence interval (CI) of the linear regression slope was completely contained within the decision interval (1 + ln (0.8)/ln (8)∼1 + ln (1.25)/ln (8)). For urine and fecal data, the accumulative excretion rates of larotinib and M5 were calculated.
Bioanalysis was performed at Frontage Company (Shanghai, China). Validated high-performance LC-MS/MS method was used to quantify the concentrations of larotinib and M5 in plasma, urine and feces samples. Protein precipitation was employed for plasma, urine and feces processing. Plasma larotinib and M5 concentrations were determined using appropriate calibration curves obtained from standards in the range of 0.5–1,000 ng/ml. The interassay precision of the analysis method were 4.2–5.4% for larotinib and 3.9–4.3% for M5. The interassay accuracy of the analysis method were 100.4–103.4% for larotinib and 102.2–102.9% for M5, respectively.

For data set [5], the system named is beagle dogs. Conditions: dog, in vivo. How it is done: (§1) Animal toxicology studies of larotinib mesylate were conducted in both Sprague–Dawley rats and beagle dogs. […] The maximal tolerable doses (MTDs) were 20 and 25 mg/kg in Sprague–Dawley rats and beagle dogs, respectively.
(§2) According to the guidance for clinical trials of antitumor agents published by the Center for Drug Evaluation and Research in China, for cytotoxic antitumor agents, the initial dose in a phase I study can be calculated as 1/10 of the MTD in rodents or 1/6 of the MTD in non-rodent animals ([CFDA, 2012]). For non-cytotoxic antitumor agents, because of their relatively lower toxicity, the initial dose can be set higher. According to the reported preclinical results for larotinib mesylate, the MTD in Sprague–Dawley rats translated to a human equivalent dose of 192 mg/d according to body surface area (calculated by 60 kg body weight), for which 1/10 is 19.2 mg/d ([FDA, 2005]). […] Taking the above results for the toxicology, preclinical pharmacology and pharmacodynamics, and drug specifications (10, 50 and 100 mg) of larotinib mesylate into account, we calculated a recommended starting dose of 50 mg larotinib mesylate for a phase I, first-in-human clinical study, lower than human equivalent 1/6 MTD translated from beagle dogs and near the human equivalent effective dose translated from tumor-bearing mice. […]

The subject of data set [6] is Sprague–Dawley rats. The conditions noted are these: rat, in vivo. How it is done: as §1, §2
Another data set concerns HER2. On the set-up: method as in data not published. The conditions noted are these: ref data not published; cited from earlier work.
The test system of data set [7] is beagle dogs. Also noted: method as in data not published. Conditions: ref data not published, cited from earlier work.
The test system of the next data set is P-glycoprotein. Conditions: cited from earlier work.
Data set [8] has as its system Sprague–Dawley rats. On the set-up: method as in data not published. The conditions noted are these: ref data not published, cited from earlier work.
In a further data set the test system is tumor-bearing mice. On the set-up: method as in data not published. The conditions noted are these: dose of 18 mg/kg, ref data not published; cited from earlier work.
The subject of another data set is wild-type EGFR. On the set-up: method as in data not published. The conditions noted are these: ref data not published, cited from earlier work.

Where a name gives a salt, the structure may show the parent alone. Read-outs that look alike come from different tables or passages of the source.

Broadly, the IC50 is the concentration needed to halve the response being measured. Regarding `COc1cc2ncnc(Nc3ccc(F)c(Cl)c3)c2cc1OCCCN1C[C@@H]2OCCO[C@@H]2C1` [larotinib mesylate], the IC50 in the data set on EGFR (T790M) is 45.2 nM; in the data set on HER4, 84 nM; in data set [2], 102 nM; in data set [3] it was 26.6 nM; in the data set with HER2, 253 nM; with wild-type EGFR (EGFR as the main target), 0.6 nM. Besides, the IC50 in the data set with wild-type EGFR (wild-type EGFR) is 0.611 nM. The inhibition result in data set [1] is “potently inhibited”. In addition, the dose excreted in data set [4] (feces, 150-mg group, read-out: 0–120 h excretion recovery percentage in feces) came out at 6.01%; in data set [4] (feces, 220-mg group, read-out: 0–120 h excretion recovery percentage in feces), 7.89%; in data set [4] (150-mg group, urine plus feces, read-out: 0–120 h excretion recovery percentage, total), 7.41%; in data set [4] (220-mg group, urine plus feces, read-out: 0–120 h excretion recovery percentage, total), 9.25%; in data set [4] (urine, 150-mg group, read-out: 0–120 h excretion recovery percentage in urine), 1.4%; in [4] (urine, 220-mg group, read-out: 0–120 h excretion recovery percentage in urine), 1.36%. Moreover, the “human equivalent dose of MTD” value was found to be 810 mg/day in the data set on beagle dogs [5] and 192 mg/day in the data set with Sprague–Dawley rats [6]. For the same compound, the “lowest observed adverse effect level (LOAEL)” value in the data set on beagle dogs [7] (daily administration) is listed as 5 mg/kg. In addition, the figures for the “maximal tolerable dose (MTD)” value with beagle dogs [7] and in the data set on Sprague–Dawley rats [8] were 25 mg/kg and 20 mg/kg, respectively. For the same compound, in the data set on P-glycoprotein, the P-glycoprotein substrate result was “substrate of P-glycoprotein”. Further, the “no observed adverse effect level (NOAEL)” value in the data set on Sprague–Dawley rats [8] (daily administration) is recorded as 10 mg/kg. Also, the tumor-inhibiting rate result in the data set with tumor-bearing mice is on record as “exceeding 60%”.
